Data on 23 compounds can be found in PubChem BioAssay (NCI).

Several values for one entry are separate records, joined by “and”; a condition that tells them apart may be missing. Identical values can stand only once.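 Results reflect a 48-hour exposure of cells in 96-well plates to compound at five concentrations. TGI denotes the concentration required for complete inhibition of growth.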

Common to all, as to test: NCI anticancer screen, dose series, 48 h
The subject of test [1] is ACHN renal.
For test [2], the system named is SNB-19 CNS.
Test [3] relates to SN12C renal.
In test [4] the test system is MALME-3M melanoma.
Test [5] has as its system KM12 colon.
Test [6] deals with HCC-2998 colon.
For test [7], the system named is RPMI-8226 leukemia.
In test [8] the test system is HL-60(TB) leukemia.
Test [9] deals with NCI-H226 lung.
The subject of test [10] is T-47D breast.

`Cc1nc2c(o1)C(=Nc1ccccc1)c1ccccc1C2=O`: the TGI in [1] stood at 19.6 µM; in [2], 23.7 µM; in [3], 22.8 µM; in test [4] it was 12.3 µM; in test [5] it was 30.9 µM; in test [6] it was 32.9 µM. The TGI in test [7] came out at 38.1 µM; in test [8], 66.1 µM.

As to `CN(CCO)CCCC1COc2ccccc2O1` (stereo not drawn), the TGI in test [1], in [2], in test [3], in [9], in test [4] and in test [6] was above 100 µM throughout. The compound further came in with a TGI in test [8] above 100 µM.

For the compound `CC(=O)c1ccccc1NCC(=O)Nn1cnc2ccc(S(=O)(=O)Nc3ccccc3C(C)=O)cc2c1=O`, the TGI in test [1], in test [2], in [3], in test [9], in test [4] and in test [5] was above 100 µM in each case. Moreover, the TGI in test [6], in test [7] and in test [8] was above 100 µM throughout.

With `Brc1ccc2c3c1[C@H]1O[C@H]1c1cccc(c1-3)[C@@H]1O[C@H]21`, the TGI in test [1] was found to be 31.9 µM; in test [2] it was 34.3 µM; in test [3] it was 33.3 µM; in [9], 64 µM; in [4], 33 µM; in test [5] it was 28.8 µM. The TGI in [10] was 26.8 µM.

Consider `CCn1c(SC(C)C(=O)c2c(C)n(C)n(-c3ccccc3)c2=O)nc2ccccc2c1=O` (stereo not drawn), for which the TGI in test [1], in [3], in test [9], in [4], in [5] and in [7] was above 100 µM in each case. Also, in [8], the TGI was above 100 µM.

As for `NC(=O)c1ccccc1NC(=O)C(=O)Cc1nc2ccccc2[nH]c1=O`, the TGI in test [1], in [2], in test [4], in test [5], in [6] and in test [7] was above 100 µM throughout. Also, in test [8], the TGI was above 100 µM.

Consider `CCN(CC)c1ccc(N=Nc2ccc([N+](=O)[O-])cc2OC(=O)/C=C/c2ccccc2)c(OC(=O)/C=C/c2ccccc2)c1`, for which the TGI was above 100 µM in test [1]; above 100 µM in [2]; above 100 µM in test [3]; above 100 µM in [9]; above 100 µM in [4]; above 35.8 µM in [5]. Besides, the results for the TGI in [6], in test [7] and in test [8] were above 100 µM, above 100 µM and above 44 µM, respectively.

`COc1ccc2c(c1)C/C(=C\c1cccc3ccccc13)C2=O`: the TGI in test [1] is above 100 µM; in test [2] it was above 100 µM; in test [3] it was above 100 µM; in test [9], 59.7 µM; in [5], above 100 µM; in [6], above 100 µM. In addition, the TGI in test [7] and in test [8] was above 100 µM each time.

Turning to `CCOC(=O)c1nc2ccccc2nc1Oc1ccc(C(=O)OC)cc1`, the TGI in [1], in test [2], in [3], in test [9], in test [4] and in test [5] was above 100 µM each time. In addition, the TGI in test [7] and in [10] was above 100 µM throughout.

Regarding `CCN(CC)C(=S)Nc1ccc(-c2cc3ccc(O)cc3oc2=O)cc1`, the TGI in test [1] is above 100 µM; in [2], above 100 µM; in [3], above 100 µM; in test [9] it was 99.5 µM; in test [4], 69.2 µM; in [5] it was above 100 µM. In addition, the values for the TGI in test [6], in [7] and in test [8] were 39.8 µM, 95.8 µM and 23.2 µM, respectively.

As to `O=c1cc(-c2c[nH]c3ccccc23)[nH]c2cc3c(cc12)OCO3`, the TGI in test [1], in test [2], in test [3], in [9], in [4] and in [6] was above 100 µM each time. Also, the TGI in test [7] and in [8] was above 100 µM in each case.

As to `CCOP(=O)(OCC)C(c1ccccc1)N(C(=O)NC(F)(F)F)c1cccc(F)c1` (stereo not drawn), the TGI in [1], in test [2], in [3], in [9], in test [4] and in test [5] was above 100 µM each time. Further, the TGI in test [6], in [7] and in test [8] was above 100 µM in each case.

Regarding `Cc1c(CCO)c(=O)n2c([nH]c3ccccc32)c1C#N`, the TGI in test [1] is above 100 µM; in [2], 91.8 µM; in test [9], above 100 µM; in test [4] it was above 100 µM; in test [5], above 100 µM; in test [6], above 100 µM. The same compound gave a TGI in test [7] above 100 µM.

`CCCC(C)n1c(C)nc2c1C(=O)c1ccccc1C2=O` (stereo not drawn): the TGI in test [1] was 95.8 µM; in [2] it was above 100 µM; in [3] it was above 100 µM; in [9], above 100 µM; in test [4], 67 µM; in [5] it was above 100 µM. Also, the TGI in test [6] and in test [8] was above 100 µM throughout.

Regarding `COc1cc(CNc2cnc3cc(N)ccc3n2)cc(OC)c1OC`, the TGI in [1], in test [2], in test [3], in [4], in [5] and in test [6] was above 100 µM in each case. In test [8], the TGI was 39.8 µM.

As for `O=C1c2ccccc2C(=O)c2c(O)c(NCCCNCCO)cc(O)c21`, the TGI in [1] came to 15.9 µM; in [3] it was 25.8 µM; in test [9], 22 µM; in test [4], 31.2 µM; in test [5] it was 21 µM; in test [6], 17 µM. Moreover, the TGI in test [7] was found to be 25.5 µM; in [8], 19.7 µM.

On to `COc1cc(C2=NNC(=O)c3ccccc3N2c2nc(-c3cccs3)nc3ccc(Br)cc23)cc(OC)c1OC`, for which the TGI is 63.3 µM in [1]; above 100 µM in test [2]; above 100 µM in test [3]; above 100 µM in test [9]; 59.1 µM in test [4]; 30.5 µM in [5]. The TGI in [7] was 12.9 µM; in [10] it was above 100 µM.

Turning to `O=C(/C=C/c1ccco1)c1ccc(NCc2nc3ccccc3[nH]2)cc1`, the TGI is 38.4 µM in [1]; 30.6 µM in test [2]; 32 µM in [3]; 13.8 µM in test [9]; 33.2 µM in test [4]; 22.6 µM in test [5]. Also, the figures for the TGI in test [6] and in [8] were 27.7 µM and 30.6 µM, respectively.

Take `CC(=O)NC1C(OCc2ccccc2)OC(CO)C(O)C1OC(C)C(=O)N[C@@H](C)C(=O)N[C@H](CCC(=O)OCCNc1c2ccccc2nc2cccc([N+](=O)[O-])c12)C(N)=O` (stereo partly drawn): the TGI in test [1] is 0.0071 µM; in [2], 0.00277 µM and 0.00694 µM; in [3], 0.0313 µM; in test [9] it was 0.0217 µM; in [4], 0.00356 µM; in [5], 0.00538 µM. The TGI is 0.00378 µM in test [6], above 0.1 µM in test [7] and 0.0564 µM in test [8].

As for `CN(C)c1ccc(C=C2C(=O)N(c3ccccc3)N(c3ccccc3)C2=O)cc1`, the TGI in test [1], in test [2], in test [3], in [9], in test [4] and in test [5] was above 100 µM each time. In [7], this compound displayed a TGI above 100 µM.

Consider `COC(=O)/C(=N/Nc1cccc(Cl)c1)C(C(=O)C(=O)Nc1cccc(Cl)c1C)c1nc2ccccc2nc1C` (stereo not drawn), for which the TGI in [1], in test [3], in [4], in test [5], in [6] and in [7] was above 100 µM each time. Further, in [8], the TGI is above 100 µM.

As to `COC(=O)C1C=CCON2CCc3c(n(C)c4ccccc34)C12` (stereo not drawn), the TGI in test [1], in test [2], in test [3], in test [9], in test [4] and in [5] was above 100 µM throughout. Further, the TGI in test [6], in test [7] and in test [8] was above 100 µM throughout.

With `CC1(C)O[C@@H](CCl)C[C@H](C#N)O1`, the TGI in test [1], in test [2], in test [3], in test [9], in [4] and in test [5] was above 100 µM throughout. Also, the TGI in [6], in test [7] and in [8] was above 100 µM each time.
